Reference: publication PMC9427252, “Study on the Absorption of Arsenic Species in Realgar Based on the Form and Valence” (Evidence-based Complementary and Alternative Medicine : eCAM, 2022)
Like-named read-outs stand apart in the source and are kept apart here.

Legend:
[1] = test system: Caco-2 cells; conditions: A to B, realgar artificial intestinal dissolved solution
[2] = test system: duodenum, jejunum, and ileum
[3] = rat plasma, oral 0.1 g/kg realgar

In the case of `O[As](O)O` [AsIII, Arsenite], the “MRT(0-∞)” value (rat, in vivo, po, 0.1 g/kg) is reported as 9.649 h.
`O=[As](O)(O)O` [AsV, Arsenate] gave a Cumulative transport amount ([1]; 30 min) of 0.23 ± 0.07 ng, a Cumulative transport amount ([1]; 60 min) of 0.41 ± 0.06 ng and a Cumulative transport amount ([1]; 90 min) of 1.01 ± 0.16 ng. The Cumulative transport amount ([1]; 120 min) was 0.84 ± 0.02 ng, the Cumulative transport amount ([1]; 180 min) was 1.20 ± 0.15 ng and the “AUC(0-24)” value [3] was 47.310 ng·h/mL. The “AUC(0-∞)” value [3] was 47.687 ng·h/mL, the Cmax [3] was 0.021626 ng/mL and the “MRT(0-∞)” value [3] was 2.790 h. For the same compound, the Tmax [3] was 0.393 h, the t1/2 [3] was 1.775 h and the Cout/Cin ([2]; duodenum and jejunum) was over 1. It also gave a Cout/Cin ([2]; ileum) of under 1, a Cout/Cin ([2]; realgar intestinal perfusate, duodenum, time 15) of 3.14 ± 0.81 and a Cout/Cin ([2]; realgar intestinal perfusate, duodenum, time 30) of 3.16 ± 0.91. It also gave a Cout/Cin ([2]; realgar intestinal perfusate, duodenum, time 45) of 3.01 ± 0.96, a Cout/Cin ([2]; realgar intestinal perfusate, duodenum, time 60) of 3.20 ± 1.04 and a Cout/Cin ([2]; realgar intestinal perfusate, duodenum, time 75) of 3.17 ± 0.86. It also gave a Cout/Cin ([2]; realgar intestinal perfusate, ileum, time 15) of 0.78 ± 0.11, a Cout/Cin ([2]; realgar intestinal perfusate, ileum, time 30) of 0.77 ± 0.10 and a Cout/Cin ([2]; realgar intestinal perfusate, ileum, time 45) of 0.76 ± 0.12. The Cout/Cin ([2]; realgar intestinal perfusate, ileum, time 60) was 0.78 ± 0.11, the Cout/Cin ([2]; realgar intestinal perfusate, ileum, time 75) was 0.80 ± 0.13 and the Cout/Cin ([2]; realgar intestinal perfusate, jejunum, time 15) was 1.54 ± 0.46. It also gave a Cout/Cin ([2]; realgar intestinal perfusate, jejunum, time 30) of 1.46 ± 0.39, a Cout/Cin ([2]; realgar intestinal perfusate, jejunum, time 45) of 1.50 ± 0.28 and a Cout/Cin ([2]; realgar intestinal perfusate, jejunum, time 60) of 1.34 ± 0.25. For the same compound, the Cout/Cin ([2]; realgar intestinal perfusate, jejunum, time 75) was 1.28 ± 0.24.
